EP2392327A1, “Use of orlistat for the anti-parasitic treatment of a parasitic disease” (Universitätsmedizin der Johannes Gutenberg-Universität Mainz, priority 2010, dated 2011)
Where two headings read alike, the source gives them in different places.

What was measured:
[1] = within the physiological pH range; cited from earlier work
[2] = cited from earlier work
HCT-8 cells = experiment: Cytotoxicity in MTS/PMS assay on HCT-8 cells; assay type: cell-based; settings: HCT-8 cultures, 48 hrs
Description: Cells were passaged in maintenance medium at 37°C in a 6% CO2/94% humidified air incubator.
Cytotoxicity of Orlistat was tested in an MTS/PMS assay (Hommer et al., 2003). Orlistat stock solution and DMSO solvent (control) were diluted in culture medium and serial dilutions were applied to HCT-8 cultures for 48 hrs.

Cryptosporidium parvum [3] = settings: 1.5x10^6 parasites, 5.0 mg Orlistat per gram dry matter
Description: Error bars represent standard deviations. […] Error bars represent standard deviations.

Cryptosporidium parvum [4] = experiment: In vitro inhibition of the development of Cryptosporidium parvum in HCT-8 cells (cell culture-based enzyme-immune assay)
Description: In a cell culture-based enzyme-immune assay increasing concentrations of Orlistat (1 - 15 µM) diluted in culture medium were tested for the inhibition of the development of Cryptosporidium parvum. The parasites were allowed to develop in HCT-8 cells for 48 hrs. The optical readings were converted into parasite growth relative to mean of the controls [%]. […] Orlistat (# 04139, Sigma, Deisenhofen, Germany) was dissolved in DMSO at 10 mM (stock solution). […] Cells were passaged in maintenance medium at 37°C in a 6% CO2/94% humidified air incubator. HCT-8 cells were seeded in 96-well culture plates and infected with Cryptosporidium parvum oocysts (IOWA strain) as described (Hommer et al., 2003). At 2 hrs post infection (p.i.) non-invaded parasites were removed by washing. Orlistat diluted in culture medium or medium alone (negative control) were added. After a total of 48 hrs p.i. culture plates were washed with PBS and fixed with methanol for 15 min. Intracellular stages of Cryptosporidium parvum were detected by an enzyme-immune assay using a monoclonal antibody (McDonald et al., 1995) as described previously (Hommer et al., 2003). Experiments were performed in six-fold replica. Optical density (OD) readings were corrected by the OD of non-infected HCT-8 cells. The means of the infected controls without Orlistat were taken as 100% growth rate. […]

Compound: CCCCCCCCCCC[C@@H](C[C@@H]1OC(=O)[C@H]1CCCCCC)OC(=O)[C@H](CC(C)C)NC=O [Orlistat]
- pKa [1]: no pKa within the physiological pH range
- solubility in chloroform ([2]; chloroform): freely soluble
- solubility in methanol and ethanol ([2]; methanol and ethanol): very soluble
- solubility in water ([2]; water): practically insoluble
- cytotoxic effect on HCT-8 cells detected at concentrations (HCT-8 cells): > 20 µM
- reduction of total parasite excretion by a factor (Cryptosporidium parvum [3]; interferon-gamma deficient mice, p < 0.0006): 125
- reduction of total parasite excretion by a factor (Cryptosporidium parvum [3]; interleukin-12 deficient mice, p < 0.008): over 80
- inhibition at 15 µM (Cryptosporidium parvum [4]; Cryptosporidium parvum, 15 µM, 48 hrs p.i., HCT-8 host cells, compared to the infected but untreated controls, read-out: inhibition rate): > 90%
- reduction of parasite development in the HCT-8 host cells (Cryptosporidium parvum [4]; all Orlistat concentrations (1 - 15 µM), p < 0.0002): concentration dependent, statistically significant reduction
